# Data as given in US10934283B2, “COMT inhibiting methods and compositions” (LIEBER INSTITUTE FOR BRAIN DEVELOPMENT, priority 2015, dated 2021).
# Target: T1, catechol-O-methyltransferase (COMT) (Homo sapiens, UniProt P21964)
# T1 construct: M51A variant) was expressed in HEK 293F cells
# T1 sequence (P21964 52-271 limits assumed): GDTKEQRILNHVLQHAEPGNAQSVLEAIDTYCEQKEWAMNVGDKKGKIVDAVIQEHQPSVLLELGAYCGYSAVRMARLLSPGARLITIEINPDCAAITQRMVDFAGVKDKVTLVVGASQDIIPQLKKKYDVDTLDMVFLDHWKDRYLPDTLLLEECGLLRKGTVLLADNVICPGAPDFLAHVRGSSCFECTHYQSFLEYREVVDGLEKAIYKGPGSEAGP
# Experiment: COMT inhibition assay (HTRF, production of SAH from SAM)
# Type: biochemical
# Settings: table does not say MB-COMT or S-COMT
# Procedure: The ability of compounds to inhibit the activity of catechol-O-methyltransferase (COMT) was determined by a homogenous time-resolved fluorescent (HTRF) assay (Lina et al, 2012; kit from CisBio, Codolet, France). This assay measures the production of S-adenosyl homocysteine (SAH) from the methyl donor S-adenosyl methionine. Recombinant human membrane bound COMT (MB-COMT; M51A variant) was expressed in HEK 293F cells using 293Fectin (Life Technologies, Gent, Belgium) and membranes prepared. The membranes were re-suspended in buffer (20 mM Tris/HCl pH 7; 10 mM glycerol; 2 mM MgCl2; 10 mM NaCl), aliquoted and stored at −80° C. Recombinant human soluble COMT(S-COMT), Val158 variant and a hexa-His tag on the N-terminus, was purified using Ni-NTA chromatography, the His tag removed and stored in buffer as above.
# For the human MB-COMT assay, membranes (62 ng/well) were incubated with SAM (20 μM final, CisBio) and dopamine (1.5 μM final; Sigma H8502, Diegem, Belgium) in the presence or absence of varying concentrations (typically 10 concentrations ranging from 10 ? M to 0.1 nM) of compound for 40 min at 37° C. in 384-well microtiter plates (10 ? l per well final volume). The reaction was terminated by the addition of acylation buffer and the amount of SAH produced determined according to manufacturer's instructions. Specific inhibition as that inhibited by a high concentration of tolcapone and all experiments were validated using a control curve to tolcapone.
# The human S-COMT assay was performed as above except that 0.15 ng enzyme/well was incubated with SAM ([…]) and dopamine (100 μM final) for 15 min at 37° C. and SAH production determined.
# HTRF readings were performed using a Perkin Elmer Envision and results expressed as concentration of SAH produced using a standard curve. Results were analyzed using non-linear regression to the 4-parameter logistic equation and pIC50 (−log 10 concentration of drug which inhibits enzyme activity/SAH production by 50%) determined.
row,SMILES,Activity range (pIC50)
1,"Cc1cccc(C)c1CN1CCn2cc(O)c(=O)cc2C1 [Example 27, 2-(2,6-dimethylbenzyl)-7-hydroxy-1,2,3,4-tetrahydro-8H-pyrido[1,2-a]pyrazin-8-one]",+++ (three plus signs (+++) is associated with a pIC50 of above about 7)
2,"Cc1ccc(C)c(CN2CCn3cc(O)c(=O)cc3C2)c1 [Example 28, 2-(2,5-dimethylbenzyl)-7-hydroxy-1,2,3,4-tetrahydro-8H-pyrido[1,2-a]pyrazin-8-one]",+++ (three plus signs (+++) is associated with a pIC50 of above about 7)
3,"O=c1cc2n(cc1O)CCN(Cc1cc3ccccc3n1S(=O)(=O)c1ccccc1)C2 [Example 29, 7-hydroxy-2-{[1-(phenylsulfonyl)-1H-indol-2-yl]methyl}-1,2,3,4-tetrahydro-8H-pyrido[1,2-a]pyrazin-8-one]",+++ (three plus signs (+++) is associated with a pIC50 of above about 7)
4,"O=c1cc2n(cc1O)CCN(CCCc1ccccc1)C2 [Example 30, 7-hydroxy-2-(3-phenylpropyl)-1,2,3,4-tetrahydro-8H-pyrido[1,2-a]pyrazin-8-one]",++ (two plus signs (++) is associated with a pIC50 of from about 6 to 7)
5,"CC(CN1CCn2cc(O)c(=O)cc2C1)c1ccccc1 (stereo not drawn) [Example 31, 7-hydroxy-2-(2-phenylpropyl)-1,2,3,4-tetrahydro-8H-pyrido[1,2-a]pyrazin-8-one]",++ (two plus signs (++) is associated with a pIC50 of from about 6 to 7)
6,"O=c1cc2n(cc1O)CCN(Cc1cc(F)cc(F)c1)C2 [Example 32, 2-(3,5-difluorobenzyl)-7-hydroxy-1,2,3,4-tetrahydro-8H-pyrido[1,2-a]pyrazin-8-one]",++ (two plus signs (++) is associated with a pIC50 of from about 6 to 7)
7,"Cc1ccccc1CN1CCn2cc(O)c(=O)cc2C1 [Example 33, 7-hydroxy-2-(2-methylbenzyl)-1,2,3,4-tetrahydro-8H-pyrido[1,2-a]pyrazin-8-one]",+++ (three plus signs (+++) is associated with a pIC50 of above about 7)
8,"O=c1cc2n(cc1O)CCN(Cc1cc(-c3ccccc3)[nH]n1)C2 [Example 34, 7-hydroxy-2-[(5-phenyl-1H-pyrazol-3-yl)methyl]-1,2,3,4-tetrahydro-8H-pyrido[1,2-a]pyrazin-8-one]",++ (two plus signs (++) is associated with a pIC50 of from about 6 to 7)
9,"O=c1cc2n(cc1O)CCN(Cc1cc(Cl)cc3c1OCCC3c1c[nH]cn1)C2 (stereo not drawn) [Example 35, 2-{[6-chloro-4-(1H-imidazol-4-yl)-3,4-dihydro-2H-chromen-8-yl]methyl}-7-hydroxy-1,2,3,4-tetrahydro-8H-pyrido[1,2-a]pyrazin-8-one]",++ (two plus signs (++) is associated with a pIC50 of from about 6 to 7)
10,"O=c1cc2n(cc1O)CCN(Cc1cccc(Oc3ccccc3)c1)C2 [Example 36, 7-hydroxy-2-(3-phenoxybenzyl)-1,2,3,4-tetrahydro-8H-pyrido[1,2-a]pyrazin-8-one]",+++ (three plus signs (+++) is associated with a pIC50 of above about 7)
11,"Cc1cccc(CN2CCn3cc(O)c(=O)cc3C2)c1C [Example 37, 2-(2,3-dimethylbenzyl)-7-hydroxy-1,2,3,4-tetrahydro-8H-pyrido[1,2-a]pyrazin-8-one]",+++ (three plus signs (+++) is associated with a pIC50 of above about 7)
12,"O=c1cc2n(cc1O)CCN(Cc1nc3ccccc3s1)C2 [Example 38, 2-(1,3-benzothiazol-2-ylmethyl)-7-hydroxy-1,2,3,4-tetrahydro-8H-pyrido[1,2-a]pyrazin-8-one]",++ (two plus signs (++) is associated with a pIC50 of from about 6 to 7)
13,"O=c1cc2n(cc1O)CCN(Cc1ccccc1F)C2 [Example 39, 2-(2-fluorobenzyl)-7-hydroxy-1,2,3,4-tetrahydro-8H-pyrido[1,2-a]pyrazin-8-one]",+++ (three plus signs (+++) is associated with a pIC50 of above about 7)
14,"Cc1nn(C)c(Cl)c1CN1CCn2cc(O)c(=O)cc2C1 [Example 40, 2-[(5-chloro-1,3-dimethyl-1H-pyrazol-4-yl)methyl]-7-hydroxy-1,2,3,4-tetrahydro-8H-pyrido[1,2-a]pyrazin-8-one]",++ (two plus signs (++) is associated with a pIC50 of from about 6 to 7)
15,"O=c1cc2n(cc1O)CCN(Cc1coc3ccccc3c1=O)C2 [Example 41, 7-hydroxy-2-[(4-oxo-4H-chromen-3-yl)methyl]-1,2,3,4-tetrahydro-8H-pyrido[1,2-a]pyrazin-8-one]",++ (two plus signs (++) is associated with a pIC50 of from about 6 to 7)
16,"O=c1cc2n(cc1O)CCN(Cc1n[nH]c3ccccc13)C2 [Example 42, 7-hydroxy-2-(1H-indazol-3-ylmethyl)-1,2,3,4-tetrahydro-8H-pyrido[1,2-a]pyrazin-8-one]",++ (two plus signs (++) is associated with a pIC50 of from about 6 to 7)
17,"O=c1cc2n(cc1O)CCN(Cc1c[nH]nc1-c1cccs1)C2 [Example 43, 7-hydroxy-2-{[3-(thiophen-2-yl)-1H-pyrazol-4-yl]methyl}-1,2,3,4-tetrahydro-8H-pyrido[1,2-a]pyrazin-8-one]",++ (two plus signs (++) is associated with a pIC50 of from about 6 to 7)
18,"O=c1cc2n(cc1O)CCN(Cc1ccccc1C(F)(F)F)C2 [Example 44, 7-hydroxy-2-[2-(trifluoromethyl)benzyl]-1,2,3,4-tetrahydro-8H-pyrido[1,2-a]pyrazin-8-one]",+++ (three plus signs (+++) is associated with a pIC50 of above about 7)
19,"O=c1cc2n(cc1O)CCN(Cc1c[nH]nc1-c1ccccc1)C2 [Example 45, 7-hydroxy-2-[(3-phenyl-1H-pyrazol-4-yl)methyl]-1,2,3,4-tetrahydro-8H-pyrido[1,2-a]pyrazin-8-one]",++ (two plus signs (++) is associated with a pIC50 of from about 6 to 7)
20,"COc1cccc(OC)c1CN1CCn2cc(O)c(=O)cc2C1 [Example 46, 2-(2,6-dimethoxybenzyl)-7-hydroxy-1,2,3,4-tetrahydro-8H-pyrido[1,2-a]pyrazin-8-one]",++ (two plus signs (++) is associated with a pIC50 of from about 6 to 7)
21,"O=c1cc2n(cc1O)CCN(Cc1ccc(Oc3ccccc3)cc1)C2 [Example 47, 7-hydroxy-2-(4-phenoxybenzyl)-1,2,3,4-tetrahydro-8H-pyrido[1,2-a]pyrazin-8-one]",+++ (three plus signs (+++) is associated with a pIC50 of above about 7)
22,"O=c1cc2n(cc1O)CCN(Cc1ccc3c(c1)OCCO3)C2 [Example 48, 2-(2,3-dihydro-1,4-benzodioxin-6-ylmethyl)-7-hydroxy-1,2,3,4-tetrahydro-8H-pyrido[1,2-a]pyrazin-8-one]",++ (two plus signs (++) is associated with a pIC50 of from about 6 to 7)
23,"CC(Cc1ccc2c(c1)OCO2)CN1CCn2cc(O)c(=O)cc2C1 (stereo not drawn) [Example 49, 2-[3-(1,3-benzodioxol-5-yl)-2-methylpropyl]-7-hydroxy-1,2,3,4-tetrahydro-8H-pyrido[1,2-a]pyrazin-8-one]",++ (two plus signs (++) is associated with a pIC50 of from about 6 to 7)
24,"COc1ccc(CN2CCn3cc(O)c(=O)cc3C2)cc1 [Example 50, 7-hydroxy-2-(4-methoxybenzyl)-1,2,3,4-tetrahydro-8H-pyrido[1,2-a]pyrazin-8-one]",++ (two plus signs (++) is associated with a pIC50 of from about 6 to 7)
